Test results as given in BindingDB's records for doi:10.1016/0896-6273(94)90055-8 (Massachusetts General Hospital, 1994).
pKi: −log10 of the molar value.

Key:
[1] = target: Melatonin receptor type 1A (Ovis aries, UniProt P48040)
[2] = target: T1, Melatonin receptor type 1B (Homo sapiens, UniProt P49286)
T1 sequence (P49286 whole entry): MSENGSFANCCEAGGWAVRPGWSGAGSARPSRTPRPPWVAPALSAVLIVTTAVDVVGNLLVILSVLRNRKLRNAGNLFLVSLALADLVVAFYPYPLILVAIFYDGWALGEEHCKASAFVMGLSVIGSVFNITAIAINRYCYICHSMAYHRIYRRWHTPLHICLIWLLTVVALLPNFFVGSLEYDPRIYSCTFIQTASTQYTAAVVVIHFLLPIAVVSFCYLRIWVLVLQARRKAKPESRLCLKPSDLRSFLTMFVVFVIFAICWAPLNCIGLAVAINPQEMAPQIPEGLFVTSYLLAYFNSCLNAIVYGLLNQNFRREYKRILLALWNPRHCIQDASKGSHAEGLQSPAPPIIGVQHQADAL

Chain of Melatonin receptor type 1A (P48040 whole entry): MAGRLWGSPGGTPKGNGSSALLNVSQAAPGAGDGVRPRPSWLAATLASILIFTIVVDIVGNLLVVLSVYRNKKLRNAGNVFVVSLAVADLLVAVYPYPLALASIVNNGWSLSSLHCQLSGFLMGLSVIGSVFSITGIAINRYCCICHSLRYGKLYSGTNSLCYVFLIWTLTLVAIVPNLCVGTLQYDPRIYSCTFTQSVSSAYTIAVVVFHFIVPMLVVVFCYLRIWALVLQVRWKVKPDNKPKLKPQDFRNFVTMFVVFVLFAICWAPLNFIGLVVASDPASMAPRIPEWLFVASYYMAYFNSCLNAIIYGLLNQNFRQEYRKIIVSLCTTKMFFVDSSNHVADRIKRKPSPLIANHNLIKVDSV

Row | Structure (SMILES) | pKi [1] | pKi [2]
1 | COc1ccc2[nH]c(I)c(CCNC(C)=O)c2c1 | 10.52 | –
2 | COc1cc2c(CCNC(C)=O)c[nH]c2cc1Cl | 9.60 | –
3 | CC(=O)n1cc(CCN)c2cc(O)ccc21 [NSC_260803] | 6.85 | 6.77
4 | NCCc1c[nH]c2ccc(O)cc12 [[3H]-5-HT] | < 5.00 | –
5 | COc1cc2c(CCNC(C)=O)c[nH]c2cc1O [melatonin, 6-Hydroxy] | – | 8.70
